Experimental data: US3963707A, “Novel N-nitroso compounds, compositions containing such compounds, processes for their preparation and methods of treatment therewith, and novel intermediates” (Aktiebolaget Leo, priority 1973, dated 1976)
Read-outs that look alike come from different tables or passages of the source.

What was measured:
utering weight = experiment: Estrogenic effect in immature female mice; format: in vivo; conditions: for estrogenic activity, 17β-estradiol and its 3-acetate compared with each other: same kind of experiment
Experimental: (§1) The androgenic and estrogenic activities, as described below, are determined with established methods (see e.g. Dorfman, R.: Methods in Hormone Research, vol. II, Acad. Press, New York and London 1962, pp. 93 and 275).
The estrogenic effect is assayed in immature female mice. The animals receive the compounds once daily for three consecutive days, and on the 4th day the utering weight is determined.

[1] = test system: Ehrlich ascites tumour, ELD hyperdiploid (46 chromosomes); experiment: Ehrlich ascites tumour test (LD50, ED50, therapeutic index); format: in vivo, SPF NMRI mice; conditions: for T.I. (LD50/ED50): Ehrlich ascites, mice, i.p.; for ED50: Mus musculus, Ehrlich, ip; for anti-tumor activity: additional compounds, result in words
Outline: (§2)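 SPF NMRI mice implanted i.p. with 2 × 10^6 Ehrlich ascites (ELD hyperdiploid) cells and given a single i.p. dose the next day; killed on day 8. ED50 = dose halving tumour weight versus controls, LD50 = dose lethal to 50%; T.I. = LD50/ED50.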

[2] = as above; format: in vivo, SPF NMRI mice; conditions: mouse, in vivo, ip; one injection i.p., mice; dose causing 50 percent lethality
Outline: as §2

Hepatoma AH 130 = experiment: in vivo; parameters: species or system SPF Wistar rats; conditions: for anti-tumor activity: additional compounds, result in words; for ED50: Rattus norvegicus, ip, 192 h, one injection i.p. day after implantation, dose causing 50 percent reduction of tumour size; for T.I. (LD50/ED50): Hepatoma AH 130, rats, i.p.
Outline: (§3)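 SPF Wistar rats were implanted i.p. with 5 × 10^6 AH 130 cells and given one i.p. dose the next day. On day 8 they were killed and tumour weights were compared with controls. ED50 is the dose halving tumour size, LD50 the 50% lethal dose, and T.I. is LD50/ED50.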

[3] = test system: Lymphatic leukemia L 1210; experiment: Lymphatic leukemia L 1210 test; format: in vivo, CDF1 (C3H×DBA/2)F1 mice; conditions: for effect on L 1210: result in words, dose not given; for Effect %: survival time as percentage of control; for Weight change v: vs control up to the 5th day
Source text: (§4) The experimental design and the interpretation of the results have been in accordance with the standards set by the CCNSC (Cancer Chemotherapy Reports, January 1959 and December 1962), and by the DR&D (Cancer Chemotherapy Reports, September 1972, Vol. 3, No. 2).
(§5) The way of administration is by the intraperitoneal route (i.p.) in each case.
Lymphatic leukemia L 1210
Experimental animals: CDF1 (C3H×DBA/2)F1 mice.
Tumour implant: 10^5 tumour cells i.p.
Therapy: One injection i.p. on the day following implantation.
Evaluation: a) The survival time of the test animals (t) expressed as the percentage of that of control animals (c).
b. Weight change in the test animals (T) compared with that of the control animals (c) up to the 5th day.
c. The mortality rate must not exceed 35% in the test animals on the 5th day of therapy.

[4] = Thymolytic effect according to A. C. Hilger (assay 8); conditions: in vivo
Source text: Thymolytic effect according to A. C.

[5] = acute intraperitoneal toxicity in mice; cited from earlier work
[6] = Progestational activity in the Clanberg test; format: in vivo; conditions: standard scale of McPhail
Walker 256 = conditions: result in words; cited from earlier work
[7] = test system: lymphoid leukemia (L 1210); conditions: result in words; cited from earlier work
[8] = test system: Walker carcinosarcoma 256; experiment: Walker carcinosarcoma 256 test; format: in vivo, Sprague Dawley rats; conditions: 5×250 mg/kg i.p.; for Lethality: died/used animals
Source text: as §4, §5
Walker carcinosarcoma 256
Experimental animals: Sprague Dawley rats.
Tumour implant: Tumour pieces with 2-4 mm diameter, subcutaneously.
Therapy: Daily injections i.p. for 5 days starting on the day following implantation.
Termination: The animals are killed on the 9th day.
Evaluation: Weights of tumours of test animals are compared with those of control animals. The differences, in per cent of weights of tumours of control animals, give per cent tumour inhibition.
The lethality is given as the number of animals which died in the experiment/the number of animals used in the experiments.

in vivo = experiment: in vivo; parameters: species or system SPF Wistar rats; conditions: rat, in vivo, ip; one injection i.p., rats; dose causing 50 percent lethality
Outline: as §3

ventral prostate [9] = experiment: Androgenic effect in castrated male rats; format: in vivo; conditions: subcutanous and intraperitoneal administration, 7 days
Experimental: as §1
The androgenic effect is assayed in castrated male rats. Beginning two weeks after castration the animals are given one daily injection of the compound for 7 days. The weight of the ventral prostate is determined on the 8th day.

Sarcoma 180 = conditions: result in words; cited from earlier work
Adenocarcinoma 755 = conditions: result in words; cited from earlier work
ventral prostate [10] = conditions: as reported in the literature; cited from earlier work
[11] = one injection i.p. day after implantation, dose causing 50 percent reduction of tumour size, read-out: ED50

## CC(=O)Oc1ccc2c(c1)CC[C@@H]1[C@@H]2CC[C@]2(C)[C@@H](O)CC[C@@H]12 [17β-estradiol-3-acetate]
Utering weight
  estrogenic activity, 17β-estradiol and its 3-acetate compared with each other: about the same estrogenic activity

## CS(=O)(=O)OCCCCOS(C)(=O)=O [Busulfan, reference compound]
[1]
  T.I. (LD50/ED50): 1.3
[1]; [11]
  ED50: 55 mg/kg
[2]
  LD50: 71 mg/kg

## C[C@]12C=CC(=O)C=C1CC[C@@H]1[C@@H]2[C@@H](O)C[C@@]2(C)[C@H]1CC[C@]2(O)C(=O)COC(=O)N(CCCl)C(=O)N(CCCl)N=O [prednisolone-21-/N^2,N^4-bis (2-chloroethyl)-N^4-nitroso allophanate/]
Hepatoma AH 130
  anti-tumor activity: exhibit anti-tumor activity
[1]
  anti-tumor activity: exhibit anti-tumor activity
[3]
  effect on L 1210: show a significant effect
[4]
  thymolytic activity compared with prednisolone acetate: about the same activity as prednisolone acetate

## O=NN(CCCl)C(=O)Oc1ccccc1 [Phenyl]
[5]
  LD50: 3 to 7 mg/kg

## C#C[C@]1(OC(C)=O)CC[C@H]2[C@@H]3CCC4=C[C@@H](OC(=O)N(CCCl)N=O)CC[C@@H]4[C@H]3CC[C@@]21C [ethynodiol-17β-acetate-3β-N-(2-chloroethyl)-N-nitroso carbamate]
Hepatoma AH 130
  anti-tumor activity: exhibit anti-tumor activity
[1]
  anti-tumor activity: exhibit anti-tumor activity
[6]
  progestational activity compared with ethynodiol-3,17-diacetate: about half that of ethynodiol-3,17 -diacetate

## CC(C)COC(=O)N(CCCl)N=O [(CH3)2 CHCH2 --]
[5]
  LD50: 7 mg/kg
Walker 256
  activity against Walker 256: inactive
[7]
  activity against lymphoid leukemia (L 1210): inactive

## C[C@]12CC[C@H](OC(=O)N(CCCl)N=O)CC1=CC[C@@H]1[C@@H]2CC[C@]2(C)C(=O)CC[C@@H]12 [dehydroepiandrosterone-3β-N-(2-chloroethyl)-N-nitroso carbamate]
[8]
  Tumour inhibition %: 66%
  Lethality: 0/16
Hepatoma AH 130
  ED50: 0.4 mg/kg
In vivo
  LD50: > 1000 mg/kg
[1]
  T.I. (LD50/ED50): > 102
[1]; [11]
  ED50: 98 mg/kg
[2]
  LD50: > 1000 mg/kg
[3]; 1×500 mg/kg i.p.
  Mortality: 0/40
  Effect %: 143%
  Weight change v: -2.5 g
Ventral prostate [9]
  androgenic effect compared with testosterone: somewhat weaker androgenic effect

## C[C@]12C=CC(=O)C=C1CC[C@@H]1[C@@H]2[C@@H](O)C[C@@]2(C)[C@H]1CC[C@]2(O)C(=O)COC(=O)N(CCCl)N=O [prednisolone-21-N-(2-chloroethyl)-N-nitroso carbamate]
Hepatoma AH 130
  anti-tumor activity: exhibit anti-tumor activity
[1]
  anti-tumor activity: exhibit anti-tumor activity
[3]
  effect on L 1210: show a significant effect
[4]
  thymolytic activity compared with prednisolone acetate: about the same activity as prednisolone acetate

## C[C@]12CC[C@H]3[C@@H](CCC4=CC(=O)CC[C@@]43C)[C@@H]1CC[C@@H]2OC(=O)N(CCCl)N=O [testosterone-17β-N-(2-chloroethyl)-N-nitroso carbamate]
[8]
  Tumour inhibition %: 64%
  Lethality: 0/8
Hepatoma AH 130
  T.I. (LD50/ED50): > 100
  ED50: 8 mg/kg
In vivo
  LD50: > 1000 mg/kg
[1]
  anti-tumor activity: exhibit anti-tumor activity
[3]; 1×125 mg/kg i.p.
  Mortality: 0/40
  Effect %: 125%
  Weight change v: -1.8 g
Ventral prostate [9]
  androgenic effect compared with testosterone: about the same androgenic effect as testosterone

## C#C[C@]1(OC(C)=O)CC[C@H]2[C@@H]3CCC4=C[C@@H](OC(=O)N(C(=O)N(CCCl)N=O)C5CCCCC5)CC[C@@H]4[C@H]3CC[C@@]21C [ethynodiol-17β-acetate-3β-/N^2-cyclohexyl-N^4-(2-chloroethyl)-N^4-nitroso allophanate/]
Hepatoma AH 130
  anti-tumor activity: exhibit anti-tumor activity
[1]
  anti-tumor activity: exhibit anti-tumor activity
[6]
  progestational activity compared with ethynodiol-3,17-diacetate: about half that of ethynodiol-3,17 -diacetate

## O=P1(N(CCCl)CCCl)NCCCO1 (centres unmarked) [Cyclofosfamid, reference compound]
[1]
  T.I. (LD50/ED50): 7.6
  ED50: 62 mg/kg
[2]
  LD50: 470 mg/kg

## CCOC(=O)N(CCCl)N=O [C2 H5 --]
Sarcoma 180
  activity against Sarcoma 180: inactive
[5]
  LD50: 2 mg/kg
Adenocarcinoma 755
  activity against Adenocarcinoma 755: inactive
[7]
  activity against lymphoid leukemia (L 1210): inactive

## CC(=O)Oc1ccc2c(c1)CC[C@@H]1[C@@H]2CC[C@]2(C)[C@@H](OC(=O)N(CCCl)N=O)CC[C@@H]12 [estradiol-3-acetate-17β-N-(2-chloroethyl)-N-nitroso carbamate]
Utering weight; given orally, subcutanously or intraperitoneally
  estrogenic effect compared with 17β-estradiol and 17β-estradiol-3-acetate: about 10 times weaker
[8]
  Tumour inhibition %: 74%
  Lethality: 1/8
Hepatoma AH 130
  T.I. (LD50/ED50): > 10
  ED50: 96 mg/kg
In vivo
  LD50: > 1000 mg/kg
[1]
  anti-tumor activity: exhibit anti-tumor activity

## S=P(N1CC1)(N1CC1)N1CC1 [Triethylene-thiophosphoramide, reference compound]
[1]
  T.I. (LD50/ED50): 1.5
[1]; [11]
  ED50: 15 mg/kg
[2]
  LD50: 22 mg/kg

## O=C(O)CCCc1ccc(N(CCCl)CCCl)cc1 [Chlorambucil, reference compound]
[2]
  LD50: 33 mg/kg

## CCCCOC(=O)N(CCCl)N=O [CH3 (CH2)2 CH2 --]
[5]
  LD50: 11 to 15 mg/kg

## C[C@]12CC[C@@H](OC(=O)N(CCCl)N=O)C[C@@H]1CC[C@@H]1[C@@H]2CC[C@]2(C)C(=O)CC[C@@H]12 [androsterone-3α-N-(2-chloroethyl)-N-nitroso carbamate]
[8]
  Tumour inhibition %: 82%
  Lethality: 0/8
Hepatoma AH 130
  T.I. (LD50/ED50): > 100
  ED50: 10 mg/kg
In vivo
  LD50: > 1000 mg/kg
[1]
  anti-tumor activity: exhibit anti-tumor activity
[3]; 1×125 mg/kg i.p.
  Mortality: 0/20
  Effect %: 153%
  Weight change v: -2.4 g

## C1CN1c1nc(N2CC2)nc(N2CC2)n1 [Triethylene-melamine, reference compound]
[1]
  T.I. (LD50/ED50): 2.6
[1]; [11]
  ED50: 1.03 mg/kg
[2]
  LD50: 2.7 mg/kg

## C[C@]12CC[C@H](O)CC1=CC[C@@H]1[C@@H]2CC[C@]2(C)C(=O)CC[C@@H]12 [dehydroepiandrosterone, androst-5-en-3β-ol-17-one]
Ventral prostate [10]
  androgenic effect compared with testosterone: weaker androgenic effect

## O=NN(CCCl)C(=O)Oc1ccc2ccccc2c1 [β-Naphthyl]
[5]
  LD50: 42 mg/kg

## C[C@]12CC[C@@H]3c4ccc(O)cc4CC[C@H]3[C@@H]1CC[C@@H]2O [17β-estradiol, estra-1,3,5(10)-triene-3,17β-diol]
Utering weight
  estrogenic activity, 17β-estradiol and its 3-acetate compared with each other: about the same estrogenic activity
